Values quoted from earlier work, collected in US20070155747A1, “INHIBITORS OF FATTY ACID AMIDE HYDROLASE” (KADMUS PHARMACEUTICALS, INC., priority 2005, published 2007).

System: FAAH
Settings: literature (Kathuria et al. 2003; Mor et al. 2004; WO 2004/033422)

Compound: NC(=O)c1cccc(-c2cccc(OC(=O)NC3CCCCC3)c2)c1 [KDS-4103]
- inhibition of FAAH activity: potent and selective inhibitors of FAAH activity
